Source: patent US20030162759A1, “Aldosterone blocker therapy to prevent or treat inflammation-related disorders” (priority 2000, published 2003)

Assays:
[1] = test system: angiotensin II infused rats; assay: Assay A angiotensin II infusion model: systolic blood pressure by tail-cuff; format: in vivo, rat; details: Wistar rats, 1% NaCl, angiotensin II 25 ng/min sc; eplerenone 100 mpk; 4 weeks
Method: Assay A: In Vivo Angiotensin II Infusion Model
Male Wistar rats (n—50, 10/group; BW=200 g)
2. Angiotensin 11 (25 ng/min, sc via aizet minipump)
SBP measured by tail-cuff every week

[2] = test system: angiotensin II infused rats; assay: Assay A angiotensin II infusion model: heart histology (coronary vascular inflammation, myocardial injury); format: in vivo, rat; details: out of ten animals per group; angiotensin II/salt, 4 weeks; eplerenone 100 mpk

## angiotensin II: angiotensin II, 25 ng/min sc via minipump, used to induce hypertension with vascular inflammation in rats (DRVYIHPF; Angiotensin-2; UniProt P01015 25-32, looked up) [reference compound]
[1]
  Systolic Blood Pressure: Systolic blood pressure increased
[2]
  Animals with vascular inflammatory lesions in the coronary arteries: Seven out of the ten
